According to US20070219224A1, “Compositions and Methods Relating to Pyrimidine Synthesis Inhibitors” (UAB RESEARCH FOUNDATION, THE, priority 2004, published 2007):
Entries after “also recorded” stand apart in the source; their conditions may differ. Marks after values point to notes of the source that are not given here.

How the values were obtained:
UTP/ATP content of BALF = experiment: Measurement of nucleotides (UTP/ATP content) in BALF of RSV-infected mice; assay type: in vivo, BALB/c mice
Protocol: (§1) Preparation of viral inocula and infection of mice. Preparation of viral stocks and intranasal infection of eight to twelve week-old pathogen-free BALB/c mice of either sex with RSV strain A2 (10^6 PFU in 100 μl) were performed as described in Davis et al., “Nucleotide-mediated inhibition of alveolar fluid clearance in BALB/c mice after respiratory syncytial virus infection,” Am. J. Physiol. Lung Cell Mol. Physiol. 286:L112-L120. (2004). Data for each experimental group was derived from a minimum of 2 independent infections.
(§2) Bronchoalveolar lavage. Bronchoalveolar lavage fluid (BALF) was collected as previously described in Davis et al., (2004), using 1 ml of sterile normal saline for cytokine ELISAs, or 0.3 ml of sterile saline for nucleotide assays. Lavagates were centrifuged to remove cells and supernatants stored at −80° C.
Measurement of nucleotides in BALF. Endogenous nucleotidases in BALF were heat denatured (100° C., 3 minutes) and UTP/ATP content measured using the […] and luciferine-luciferase assays, respectively.
(§3) Systemic inhibition of de novo pyrimidine and purine synthesis. Leflunomide (5-methylisoxazole-4-[4-trifluoromethyl]carboxanilide, 35 mg/kg in distilled water containing 1% methylcellulose) was administered once daily by oral gavage in a volume of 300 μl/mouse for 8 days prior to infection, then throughout the infection period. Vehicle controls were gavaged with an equivalent volume of 1% methylcellulose in distilled water. […]

RSV-infected BALB/c mice [1] = experiment: Lung water content (wet:dry weight ratio) after RSV infection; assay type: in vivo; conditions: day 2, systemic treatment
Protocol: as §1, §3

RSV-infected BALB/c mice [2] = experiment: Mean peripheral blood oxygen saturation (SmO2), pulse oximetry; assay type: in vivo; conditions: d2
Protocol: Measurement of mean peripheral blood oxygen saturation. Peripheral blood oxygen saturation was measured in conscious mice, using a PREEMIE OXYTIP® sensor (Datex-Olmeda, hic., Madison, Wis.), connected to a TUFFSAT™ pulse oximeter (Datex-Ohmeda, Inc., Madison, Wis.). Because of the extremely rapid pulse rate of the mouse, oximetry values are mean hemoglobin O2 saturation (SmO2) values from arterial and venous blood.
(§4) Systemic inhibition of de novo pyrimidine and purine synthesis. Leflunomide (5-methylisoxazole-4-[4-trifluoromethyl]carboxanilide, 35 mg/kg in distilled water containing 1% methylcellulose) was administered once daily by oral gavage in a volume of 300 μl/mouse for 8 days prior to infection, then throughout the infection period. Vehicle controls were gavaged with an equivalent volume of 1% methylcellulose in distilled water. Uridine (1 g/kg in 0.9% NaCl) was administered by i.p. injection every 12 hours in a volume of 100 μl (8). 6-MP (35 mg/kg in 1N NaOH, pH adjusted to 7.9 with 2 M Na2HPO4) was administered by i.p. injection every 24 hours in a volume of 100 μl, for 5 days prior to infection, then throughout the infection period.

[3] = system: IFN-α, IL-1β, KC, TNF-α in BALF; experiment: Measurement of proinflammatory cytokines in BALF (ELISA); assay type: in vivo, BALB/c mice; conditions: RSV-infected mice, d2
Protocol: as §1, §2
Systemic inhibition of de novo pyrimidine and purine synthesis. Leflunomide (5-methylisoxazole-4-[4-trifluoromethyl]carboxanilide, 35 mg/kg in distilled water containing 1% methylcellulose) was administered once daily by oral gavage in a volume of 300 μl/mouse for 8 days prior to infection, then throughout the infection period. Vehicle controls were gavaged with an equivalent volume of 1% methylcellulose in distilled water. […].
Measurement of proinflammatory cytokines in BALF. Cytokine levels were determined using Quantikine M ELISA kits (R & D Systems), in accordance with manufacturer's instructions.

RSV-infected BALB/c mice [4] = experiment: Nasal potential difference (NPD, NPDAMIL); assay type: in vivo; conditions: leflunomide throughout the infection period
Protocol: Measurement of nasal potential difference. The potential difference across the nares of anesthetized mice (with the tail as reference) was measured as previously described Grubb et al., (1994) “Hyperabsorption of Na+ and raised Ca(2+)-mediated Cl-secretion in nasal epithelia of CF mice,” Am. J. Physiol 266:C1478-C1483. A baseline NPD was recorded during perfusion of the nasal epithelium with lactated Ringer's solution. The amiloride-sensitive component of NPD (NPDAMIL) was determined by perfusion with lactated Ringer's solution containing 100 μM amiloride. Current pulses of ±60 nA were applied across the epithelium by a 12V battery in series with a 200 MΩ resistor. Changes in NPD in response to the current pulses (proportional to nasal transepithelial resistance, NRte) were recorded (ΔNPD).
Systemic inhibition of de novo pyrimidine and purine synthesis. Leflunomide (5-methylisoxazole-4-[4-trifluoromethyl]carboxanilide, 35 mg/kg in distilled water containing 1% methylcellulose) was administered once daily by oral gavage in a volume of 300 μl/mouse for 8 days prior to infection, then throughout the infection period. Vehicle controls were gavaged with an equivalent volume of 1% methylcellulose in distilled water. Uridine (1 g/kg in 0.9% NaCl) was administered by i.p. injection every 12 hours in a volume of 100 μl (8). […]

RSV strain A2 = experiment: RSV replication in mouse lungs; assay type: in vivo, Respiratory syncytial virus; conditions: for virus replication in lung tissue at d2: RSV-infected mice, day 2 p.i., systemic treatment
Protocol: as §1, §3

RSV-infected BALB/c mice [5] = experiment: Heart rate change with ventilation (% ΔHR30), ECG; assay type: in vivo; conditions: RSV-infected mice during AFC procedures, d2
Protocol: Measurement of heart rate changes with ventilation. ECG tracings were used to measure heart rate (number of QRS complexes/cm) at the start (HRSTART) and end (HREND) of the AFC assay. The % change in rate over the 30-minute ventilation period (% ΔHR30) was calculated as (HRSTART−HREND)/HRSTART.
as §4

[6] = d2, leflunomide 35 mg/kg oral gavage once daily, uridine 1 g/kg i.p. every 12 hours

Compound: Cc1oncc1C(=O)Nc1ccc(C(F)(F)F)cc1 [Leflunomide, 5-methylisoxazole-4-[4-trifluoromethyl]carboxanilide]
- effect on BALF nucleotide (UTP, ATP) levels (in words) (UTP/ATP content of BALF; d2): No increase in BALF nucleotide levels was detected; also recorded: reduced BALF content of both nucleotides to levels below those in untreated, uninfected mice
- ATP, mean nucleotide concentration in BALF ± SE (UTP/ATP content of BALF; [6]): 6 ± 1 nmol/L
- UTP, mean nucleotide concentration in BALF ± SE (UTP/ATP content of BALF; [6]): 5 ± 2 nmol/L
- lung water content (wet:dry weight ratio) (in words) (RSV-infected BALB/c mice [1]): normalization of lung wet:dry weight ratios
- lung water content (wet:dry weight ratio) (in words) (RSV-infected BALB/c mice [1]; listed as LEF): reverses RSV-induced increased in lung water content
- lung water content (wet:dry weight ratio) (in words) (RSV-infected BALB/c mice [1]; listed as leflunomide): restored normal lung wet:dry weight ratios
- SmO2 (mean blood O2 saturation) (RSV-infected BALB/c mice [2]): improved mean blood O2 saturation; also recorded: normalization of SmO2 readings
- BALF proinflammatory cytokine levels (IFN-α, IL-1β, KC, TNF-α) (in words) [3]: significantly reduced
- BALF proinflammatory cytokine levels (IFN-α, IL-1β, KC, TNF-α) (in words) ([3]; listed as LEF): significant reduction
- IFN-α, mean cytokine concentration in BALF ± SE ([3]; systemic treatment): 72 ± 12 pg/mL
- IL-1β, mean cytokine concentration in BALF ± SE ([3]; systemic treatment): 20 ± 8 pg/mL
- KC, mean cytokine concentration in BALF ± SE ([3]; systemic treatment): 425 ± 58 pg/mL
- TNF-α, mean cytokine concentration in BALF ± SE ([3]; systemic treatment): 0*** pg/ml
- basal NPD and NPDAMIL (RSV-infected BALB/c mice [4]): completely prevented RSV-induced declines in basal NPD and NPDAMIL
- virus replication in lung tissue at d2 (RSV strain A2): unaffected
- virus replication in lung tissue at d2 (RSV strain A2; listed as LEF): no effect on virus replication
- virus replication at d8, treatment continued (RSV strain A2; leflunomide continued throughout the 8 day infection period): persisted at high levels
- virus replication at d8, treatment discontinued (RSV strain A2; leflunomide discontinued after d2): only minimally increased
- % ΔHR30 (RSV-infected BALB/c mice [5]): prevented the increase in % ΔHR30
